Data reported in patent US20240424113A1, “CONJUGATES COMPRISING ANTIFUNGALS AND HEAT SHOCK PROTEIN 90 (HSP90) INHIBITORS AND METHODS OF USE THEREOF” (Bright Angel Therapeutics Inc., priority 2021, published 2024).
pKd: −log10 of the molar value. Values after ≈ are worked out from the molar mass of the structure shown.

What was measured:
CaCl2 = assay: Antifungal sensitivity testing (broth microdilution MIC); format: cell-based; details: Table 4; 96-well broth microdilution
Method: Antifungal Sensitivity Testing. Minimum inhibitory concentrations (MICs) were determined in flat bottom, 96-well plate format using a modified broth microdilution protocol as previously described (Singh et al., PLoS Pathog. 5, e1000532 (2009); LaFayette et al., PLoS Pathog. 6, 79-80 (2010)). Compounds were formulated in dimethyl sulfoxide (DMSO, Sigma-Aldrich Co.); fluconazole was dissolved in sterile ddH2O. Each compound was tested in duplicate in at least two independent experiments. To test for fungicidal activity, cultures from MIC plates were spotted on YPD agar plates using a spotter (Frogger, V&P Scientific, Inc.). Plates were photographed after 24 h of incubation at 30° C.

[1] = biological target: Hsp90 Nuclear Binding Domain (NBD) (Candida albicans (strain SC5314 / ATCC MYA-2876) (Yeast), UniProt P46598); assay: Surface Plasmon Resonance (SPR) binding, C. albicans Hsp90 NBD; details: biotinylated Hsp90 NBD on streptavidin chip, 25° C., 1:1 binding model
Method: (§1) Surface Plasmon Resonance (SPR) Experiments. SPR experiments were performed on a Biacore S200 instrument at 25° C. Biotinylated Hsp90 Nuclear Binding Domain (NBD) was diluted to 40 μg/mL and immobilized on a streptavidin chip (Sensor Chip SA, GE Healthcare) at a density of 2000-2500 response units (RU) on the biosensor surface.
(§2) Recombinant Hsp90 NBDs were expressed and purified as previously described (Whitesell et al., Nat Commun 10, 402 (2019)) with the following modification; Hsp90 NBD expression constructs were modified to encode a C-terminal AviTag for site-specific on-column biotinylation with a BirA biotin-ligase kit (Avidity LLC; BirA-500). Stock protein solutions in 50% glycerol were stored at −20° C. until dilution into relevant buffers. Binding experiments were done in HBS-P (0.01 M HEPES, pH 7.4, 0.15 M NaCl, 0.005% v/v surfactant P20, GE Healthcare) with 2% DMSO at flow rate of 40 μL/min. Test compounds (dilution series) were injected with a 60 s association time and 600 s dissociation time. Resulting sensorgrams were analyzed with a fit to a 1:1 binding model, using BIA evaluation software.

[2] = biological target: Hsp90 Nuclear Binding Domain (NBD) (Aspergillus fumigatus, UniProt P40292); assay: Surface Plasmon Resonance (SPR) binding, A. fumigatus Hsp90 NBD; details: biotinylated Hsp90 NBD on streptavidin chip, 25° C., 1:1 binding model; NB undefined
Method: as §1, §2

Hsp90 Nuclear Binding Domain (NBD) (Aspergillus fumigatus, UniProt P40292), sequence (P40292 whole entry, looked up, the tested form may be a part): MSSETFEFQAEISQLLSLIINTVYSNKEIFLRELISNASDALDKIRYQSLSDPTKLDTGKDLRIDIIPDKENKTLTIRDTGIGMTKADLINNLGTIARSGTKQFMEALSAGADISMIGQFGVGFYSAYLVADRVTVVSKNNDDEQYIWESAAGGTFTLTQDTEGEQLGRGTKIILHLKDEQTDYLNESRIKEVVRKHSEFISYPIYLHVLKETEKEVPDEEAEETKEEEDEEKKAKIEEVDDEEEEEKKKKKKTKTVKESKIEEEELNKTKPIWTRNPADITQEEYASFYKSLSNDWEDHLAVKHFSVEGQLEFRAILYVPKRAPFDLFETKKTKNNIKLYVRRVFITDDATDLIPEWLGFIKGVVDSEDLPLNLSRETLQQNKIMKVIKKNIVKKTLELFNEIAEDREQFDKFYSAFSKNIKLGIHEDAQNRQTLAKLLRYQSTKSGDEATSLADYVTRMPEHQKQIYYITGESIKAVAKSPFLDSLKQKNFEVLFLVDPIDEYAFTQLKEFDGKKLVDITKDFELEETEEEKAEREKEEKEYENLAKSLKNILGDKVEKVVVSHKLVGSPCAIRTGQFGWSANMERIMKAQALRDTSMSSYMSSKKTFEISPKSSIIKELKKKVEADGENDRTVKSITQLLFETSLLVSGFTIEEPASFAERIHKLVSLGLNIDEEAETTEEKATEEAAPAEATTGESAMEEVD
Hsp90 Nuclear Binding Domain (NBD) (Candida albicans (strain SC5314 / ATCC MYA-2876) (Yeast), UniProt P46598), sequence (P46598 1-218 limits assumed): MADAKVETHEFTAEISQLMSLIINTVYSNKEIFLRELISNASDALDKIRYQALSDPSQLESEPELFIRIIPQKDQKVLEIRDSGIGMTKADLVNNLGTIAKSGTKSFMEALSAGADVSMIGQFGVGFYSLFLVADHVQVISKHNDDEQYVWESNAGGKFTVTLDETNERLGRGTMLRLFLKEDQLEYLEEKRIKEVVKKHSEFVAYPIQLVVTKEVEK

| SMILES | MIC50 (CaCl2) [µM] | pKd [1] | pKd [2] |
| --- | --- | --- | --- |
| Nc1nc2sc(C(=O)NC3CCN(C[C@](O)(Cn4cncn4)c4ccc(F)cc4F)CC3)cc2n(-c2ccc3c(c2)N(c2ccccc2)CCO3)c1=O [Compound I-7, (S)-3-amino-N-(1-(2-(2,4-difluorophenyl)-2-hydroxy-3-(1H-1,2,4-triazol-1-yl)propyl)piperidin-4-yl)-2-oxo-1-(4-phenyl-3,4-dihydro-2H-benzo[b][1,4]oxazin-6-yl)-1,2-dihydrothieno[2,3-b]pyrazine-6-carboxamide] | 0.75 (≈ 0.555 µg/mL) | 7.64 | 7.12 |
| Nc1nc2sc(C(=O)Nc3ccc(N4CCN(CC(O)(Cn5cncn5)c5ccc(F)cc5F)CC4)cc3)cc2n(-c2ccc3c(c2)N(c2ccccc2)CCO3)c1=O (stereo not shown) [Compound I-8, 3-amino-N-(4-(4-(2-(2,4-difluorophenyl)-2-hydroxy-3-(1H-1,2,4-triazol-1-yl)propyl)piperazin-1-yl)phenyl)-2-oxo-1-(4-phenyl-3,4-dihydro-2H-benzo[b][1,4]oxazin-6-yl)-1,2-dihydrothieno[2,3-b]pyrazine-6-carboxamide] | 0.75 (≈ 0.613 µg/mL) | – | – |
| Nc1nc2sc(C(=O)Nc3ccc(CN4CCN(CC(O)(Cn5cncn5)c5ccc(F)cc5F)CC4)cc3)cc2n(-c2ccc3c(c2)N(c2ccccc2)CCO3)c1=O (stereo not shown) [Compound I-9, 3-amino-N-(4-((4-(2-(2,4-difluorophenyl)-2-hydroxy-3-(1H-1,2,4-triazol-1-yl)propyl)piperazin-1-yl)methyl)phenyl)-2-oxo-1-(4-phenyl-3,4-dihydro-2H-benzo[b][1,4]oxazin-6-yl)-1,2-dihydrothieno[2,3-b]pyrazine-6-carboxamide] | 10 (≈ 8.31 µg/mL) | 6.87 | 5.41 |
| Nc1nc2sc(C(=O)NC3CCN(CC(O)(Cn4cncn4)c4ccc(F)cc4F)CC3)cc2n(-c2ccc3ccn(-c4ccccc4)c3c2)c1=O (stereo not shown) [Compound I-13, 3-amino-N-(1-(2-(2,4-difluorophenyl)-2-hydroxy-3-(1H-1,2,4-triazol-1-yl)propyl)piperidin-4-yl)-2-oxo-1-(1-phenyl-1H-indol-6-yl)-1,2-dihydrothieno[2,3-b]pyrazine-6-carboxamide] | 0.37 (≈ 0.267 µg/mL) | 7.30 | 7.12 |
| Nc1nc2sc(C(=O)N[C@H]3CCN(CC(O)(Cn4cncn4)c4ccc(F)cc4F)C3)cc2n(-c2ccc3c(c2)N(c2ccccc2)CCO3)c1=O (stereo partly drawn) [Compound I-14, 3-amino-N-((3S)-1-(2-(2,4-difluorophenyl)-2-hydroxy-3-(1H-1,2,4-triazol-1-yl)propyl)pyrrolidin-3-yl)-2-oxo-1-(4-phenyl-3,4-dihydro-2H-benzo[b][1,4]oxazin-6-yl)-1,2-dihydrothieno[2,3-b]pyrazine-6-carboxamide] | 25 (≈ 18.1 µg/mL) | 7.63 | 6.84 |
| Nc1nc2sc(C(=O)NCCN3CCN(CC(O)(Cn4cncn4)c4ccc(F)cc4F)CC3)cc2n(-c2ccc3c(c2)N(c2ccccc2)CCO3)c1=O (stereo not shown) [Compound I-15, 3-amino-N-(2-(4-(2-(2,4-difluorophenyl)-2-hydroxy-3-(1H-1,2,4-triazol-1-yl)propyl)piperazin-1-yl)ethyl)-2-oxo-1-(4-phenyl-3,4-dihydro-2H-benzo[b][1,4]oxazin-6-yl)-1,2-dihydrothieno[2,3-b]pyrazine-6-carboxamide] | 2.75 (≈ 2.11 µg/mL) | 7.52 | 6.73 |
| Nc1nc2sc(C(=O)NC3CCN(CC(O)(Cn4cncn4)c4ccc(F)cc4F)CC3)cc2n(-c2ccc3c(c2)N(c2ccccc2)CCC3)c1=O (stereo not shown) [Compound I-16, 3-amino-N-(1-(2-(2,4-difluorophenyl)-2-hydroxy-3-(1H-1,2,4-triazol-1-yl)propyl)piperidin-4-yl)-2-oxo-1-(1-phenyl-1,2,3,4-tetrahydroquinolin-7-yl)-1,2-dihydrothieno[2,3-b]pyrazine-6-carboxamide] | 0.6 (≈ 0.443 µg/mL) | 7.80 | 6.85 |
| Nc1nc2scc(C(=O)N[C@H]3CCN(CC(O)(Cn4cncn4)c4ccc(F)cc4F)C3)c2n(-c2ccc3c(c2)N(c2ccccc2)CCO3)c1=O (stereo partly drawn) [Compound I-17, 3-amino-N-((3S)-1-(2-(2,4-difluorophenyl)-2-hydroxy-3-(1H-1,2,4-triazol-1-yl)propyl)pyrrolidin-3-yl)-2-oxo-1-(4-phenyl-3,4-dihydro-2H-benzo[b][1,4]oxazin-6-yl)-1,2-dihydrothieno[2,3-b]pyrazine-7-carboxamide] | 45 (≈ 32.7 µg/mL) | 5.57 | 5.57 |
| Cc1ccc(-n2c(=O)c(N)nc3sc(C(=O)NC4CCN(C[C@](O)(Cn5cncn5)c5ccc(F)cc5F)CC4)cc32)cc1Oc1ccccc1 [Compound I-25, (S)-3-amino-N-(1-(2-(2,4-difluorophenyl)-2-hydroxy-3-(1H-1,2,4-triazol-1-yl)propyl)piperidin-4-yl)-1-(4-methyl-3-phenoxyphenyl)-2-oxo-1,2-dihydrothieno[2,3-b]pyrazine-6-carboxamide] | 0.5 (≈ 0.356 µg/mL) | 6.77 | 6.52 |
| Nc1nc2sc(C(=O)NC3CCN(CCC(O)(Cn4cncn4)c4ccc(F)cc4F)CC3)cc2n(-c2ccc3c(c2)N(c2ccccc2)CCO3)c1=O (stereo not shown) [Compound I-28, 3-amino-N-(1-(3-(2,4-difluorophenyl)-3-hydroxy-4-(1H-1,2,4-triazol-1-yl)butyl)piperidin-4-yl)-2-oxo-1-(4-phenyl-3,4-dihydro-2H-benzo[b][1,4]oxazin-6-yl)-1,2-dihydrothieno[2,3-b]pyrazine-6-carboxamide] | 6 (≈ 4.52 µg/mL) | 7.88 | 6.80 |
| Nc1nc2scc(C(=O)NC3CCN(C[C@](O)(Cn4cncn4)c4ccc(F)cc4F)CC3)c2n(-c2ccc3c(c2)N(c2ccccc2)CCO3)c1=O [Compound I-35, (S)-3-amino-N-(1-(2-(2,4-difluorophenyl)-2-hydroxy-3-(1H-1,2,4-triazol-1-yl)propyl)piperidin-4-yl)-2-oxo-1-(4-phenyl-3,4-dihydro-2H-benzo[b][1,4]oxazin-6-yl)-1,2-dihydrothieno[2,3-b]pyrazine-7-carboxamide] | 25 (≈ 18.5 µg/mL) | 5.71 | 5.74 |
| Nc1nc2sc(C(=O)Nc3ccc(COC4CCN(CC(O)(Cn5cncn5)c5ccc(F)cc5F)CC4)cc3)cc2n(-c2ccc3c(c2)N(c2ccccc2)CCO3)c1=O (stereo not shown) [Compound I-46, 3-amino-N-(4-(((1-(2-(2,4-difluorophenyl)-2-hydroxy-3-(1H-1,2,4-triazol-1-yl)propyl)piperidin-4-yl)oxy)methyl)phenyl)-2-oxo-1-(4-phenyl-3,4-dihydro-2H-benzo[b][1,4]oxazin-6-yl)-1,2-dihydrothieno[2,3-b]pyrazine-6-carboxamide] | 0.85 (≈ 0.719 µg/mL) | – | – |
| Nc1nc2sc(C(=O)NC3CCCN(CC(O)(Cn4cncn4)c4ccc(F)cc4F)CC3)cc2n(-c2ccc3c(c2)N(c2ccccc2)CCO3)c1=O (stereo not shown) [Compound I-50, 3-amino-N-(1-(2-(2,4-difluorophenyl)-2-hydroxy-3-(1H-1,2,4-triazol-1-yl)propyl)azepan-4-yl)-2-oxo-1-(4-phenyl-3,4-dihydro-2H-benzo[b][1,4]oxazin-6-yl)-1,2-dihydrothieno[2,3-b]pyrazine-6-carboxamide] | 3.25 (≈ 2.45 µg/mL) | 7.37 | – |
| Nc1nc2sc(-c3cn(C4CCN(CC(O)(Cn5cncn5)c5ccc(F)cc5F)CC4)nn3)cc2n(-c2ccc3c(c2)N(c2ccccc2)CCO3)c1=O (stereo not shown) [Compound I-51, 3-amino-6-(1-(1-(2-(2,4-difluorophenyl)-2-hydroxy-3-(1H-1,2,4-triazol-1-yl)propyl)piperidin-4-yl)-1H-1,2,3-triazol-4-yl)-1-(4-phenyl-3,4-dihydro-2H-benzo[b][1,4]oxazin-6-yl)thieno[2,3-b]pyrazin-2(1H)-one] | 1 (≈ 0.764 µg/mL) | 8.52 | 7.84 |
| Nc1nc2sc(CNC3[C@@H]4CC[C@H]3CN(CC(O)(Cn3cncn3)c3ccc(F)cc3F)C4)cc2n(-c2ccc3c(c2)N(c2ccccc2)CCO3)c1=O (stereo partly drawn) [Compound I-116, 3-amino-6-((((1R,5S)-3-(2-(2,4-difluorophenyl)-2-hydroxy-3-(1H-1,2,4-triazol-1-yl)propyl)-3-azabicyclo[3.2.1]octan-8-yl)amino)methyl)-1-(4-phenyl-3,4-dihydro-2H-benzo[b][1,4]oxazin-6-yl)thieno[2,3-b]pyrazin-2(1H)-one] | 3 (≈ 2.26 µg/mL) | 5.87 | – |
| CN(Cc1cc2c(nc(N)c(=O)n2-c2ccc3c(c2)N(c2ccccc2)CCO3)s1)C1CCN(CC(O)(Cn2cncn2)c2ccc(F)cc2F)CC1 (stereo not shown) [Compound I-119, 3-amino-6-(((1-(2-(2,4-difluorophenyl)-2-hydroxy-3-(1H-1,2,4-triazol-1-yl)propyl)piperidin-4-yl)(methyl)amino)methyl)-1-(4-phenyl-3,4-dihydro-2H-benzo[b][1,4]oxazin-6-yl)thieno[2,3-b]pyrazin-2(1H)-one] | 6.5 (≈ 4.81 µg/mL) | – | – |
